{"source": "patent US20230381154A1", "about": "“TREATMENT OF BREAST CANCER USING COMBINATION THERAPIES COMPRISING GDC-9545 AND ABEMACICLIB OR RIBOCICLIB” (Genentech, Inc., priority 2021, published 2023)", "key": {"[1]": {"system": "xenograft models", "assay": "xenograft models, efficacy", "format": "in vivo", "details": "fulvestrant dosed according to a clinically relevant dosing scheme", "from_the_text": "(§1) Furthermore, the lower plasma protein binding of GDC-9545 provides higher free concentration of GDC-9545 than fulvestrant."}, "[2]": {"system": "ER+ metastatic breast cancer", "details": "frontline patients, NCT01602380; cited from earlier work"}, "[3]": {"assay": "human steady-state total drug exposure, GDC-9545 versus fulvestrant", "format": "in vivo", "details": "GDC-9545 30 mg QD versus fulvestrant 500 mg IM monthly", "from_the_text": "as §1"}, "[4]": {"assay": "plasma protein binding and free concentration, GDC-9545 versus fulvestrant", "format": "in vitro ADME", "from_the_text": "as §1"}, "[5]": {"target": "T1, wild-type ER (Homo sapiens, UniProt P03372)", "T1 sequence (P03372 1-595)": "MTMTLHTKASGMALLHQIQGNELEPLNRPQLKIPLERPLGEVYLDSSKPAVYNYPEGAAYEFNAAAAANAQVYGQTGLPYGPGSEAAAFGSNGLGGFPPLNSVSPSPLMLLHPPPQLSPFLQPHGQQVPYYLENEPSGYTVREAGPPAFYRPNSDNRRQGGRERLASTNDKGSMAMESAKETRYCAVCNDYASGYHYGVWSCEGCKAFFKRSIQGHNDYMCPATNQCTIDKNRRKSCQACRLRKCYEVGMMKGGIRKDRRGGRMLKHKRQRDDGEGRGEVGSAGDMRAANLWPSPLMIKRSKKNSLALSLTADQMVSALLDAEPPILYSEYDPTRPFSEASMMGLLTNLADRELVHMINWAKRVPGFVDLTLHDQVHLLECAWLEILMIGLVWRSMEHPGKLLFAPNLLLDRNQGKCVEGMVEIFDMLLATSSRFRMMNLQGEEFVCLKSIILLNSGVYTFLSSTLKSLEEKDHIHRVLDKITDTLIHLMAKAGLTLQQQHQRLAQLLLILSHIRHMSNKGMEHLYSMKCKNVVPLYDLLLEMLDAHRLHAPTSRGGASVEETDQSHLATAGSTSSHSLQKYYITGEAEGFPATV", "assay": "in vitro cell and biochemical assays, wild-type context", "from_the_text": "as §1"}, "[6]": {"system": "ESR1-mutant", "assay": "in vitro cell and biochemical assays, ESR1-mutant context", "from_the_text": "as §1"}, "[7]": {"target": "CDK4 (Homo sapiens, UniProt P11802)", "sequence (P11802 whole entry)": "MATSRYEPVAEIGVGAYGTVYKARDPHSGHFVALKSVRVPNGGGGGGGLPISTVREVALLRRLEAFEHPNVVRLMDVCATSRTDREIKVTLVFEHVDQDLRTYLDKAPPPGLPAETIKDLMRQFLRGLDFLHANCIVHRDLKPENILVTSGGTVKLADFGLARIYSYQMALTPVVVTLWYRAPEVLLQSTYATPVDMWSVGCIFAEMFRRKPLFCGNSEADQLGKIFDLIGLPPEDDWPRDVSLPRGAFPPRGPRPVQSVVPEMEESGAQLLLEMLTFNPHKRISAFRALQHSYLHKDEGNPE", "sequence (P24385 whole entry partner)": "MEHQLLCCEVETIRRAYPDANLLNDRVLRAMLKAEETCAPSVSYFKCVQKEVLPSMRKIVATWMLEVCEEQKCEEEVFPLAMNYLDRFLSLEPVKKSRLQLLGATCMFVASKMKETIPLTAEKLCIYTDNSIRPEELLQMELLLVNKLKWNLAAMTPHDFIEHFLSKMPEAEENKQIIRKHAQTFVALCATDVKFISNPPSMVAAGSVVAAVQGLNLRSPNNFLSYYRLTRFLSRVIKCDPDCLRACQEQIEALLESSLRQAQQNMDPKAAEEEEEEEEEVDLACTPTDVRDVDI", "details": "cited from earlier work"}, "[8]": {"system": "endocrine-resistant tumors", "details": "cited from earlier work"}}, "data": [{"compound": "C[C@]12CC[C@@H]3c4ccc(O)cc4C[C@@H](CCCCCCCCC[S+]([O-])CCCC(F)(F)C(F)(F)F)[C@H]3[C@@H]1CC[C@@H]2O", "note": "(stereo partly drawn) [Fulvestrant]", "values": [{"measurement": "efficacy in xenograft models compared with GDC-9545", "setting": "[1]", "result": "less efficacious"}, {"measurement": "clinical benefit versus anastrozole", "setting": "[2]", "result": "benefit over anastrozole"}]}, {"compound": "C[C@@H]1Cc2c([nH]c3ccccc23)[C@@H](c2c(F)cc(NC3CN(CCCF)C3)cc2F)N1CC(F)(F)CO", "note": "[GDC-9545, 3-((1R,3R)-1-(2,6-difluoro-4-((1-(3-fluoropropyl)azetidin-3-yl)amino)phenyl)-3-methyl-1,3,4,9-tetrahydro-2H-pyrido[3,4-b]indol-2-yl)-2,2-difluoropropan-1-ol]", "values": [{"measurement": "steady-state total drug exposure relative to fulvestrant", "setting": "[3]", "result": "approximately 10 fold"}, {"measurement": "free concentration compared with fulvestrant", "setting": "[4]", "result": "higher"}, {"measurement": "plasma protein binding compared with fulvestrant", "setting": "[4]", "result": "lower"}, {"measurement": "potency relative to fulvestrant", "setting": "[5]", "result": "up to 10 times"}, {"measurement": "potency relative to fulvestrant", "setting": "[6]", "result": "up to 10 times"}]}, {"compound": "(2-Pyrimidinamine, N-[5-[(4-ethyl-1-piperazinyl)methyl]-2-pyridinyl]-5-fluoro-4-[4-fluoro-2-methyl-1-(1-methylethyl)-1H-benzimidazol-6-yl] [abemaciclib]", "values": [{"measurement": "selectivity CDK4 versus CDK6", "setting": "[7]", "result": "more selective for CDK4 than CDK6"}, {"measurement": "single-agent activity", "setting": "[8]", "result": "single-agent activity"}]}]}
